Results reported in ChEMBL document CHEMBL1154575, “Bioactive 12-oleanene triterpene and secotriterpene acids from Maytenus undata” (J Nat Prod, 2000).
In brackets after ≈: the same amount, converted by molar mass.

Columns and labels:
[1] = Antiinflammatory activity in rat neonatal brain microglia cells assessed as effect on phorbol-12-myristate-13-acetate-stimulated superoxide release; assay type: functional, cell-based
[2] = Antiinflammatory activity in rat neonatal brain microglia cells assessed as effect on phorbol-12-myristate-13-acetate-stimulated thromboxane B2 release; assay type: functional, cell-based
[3] = Toxicity against rat neonatal brain microglia cells assessed as phorbol-12-myristate-13-acetate-stimulated LDH release; assay type: cell-based
Pseudomonas aeruginosa = experiment: Antibacterial activity against Pseudomonas aeruginosa ATCC 15442 after 48 hrs by agar dilution method; assay type: functional; conditions: ATCC 15442, 48 h
Staphylococcus aureus [4] = experiment: Antibacterial activity against Staphylococcus aureus ATCC 6535 after 48 hrs by agar dilution method; assay type: functional; conditions: ATCC 6535, 48 h
Staphylococcus aureus [5] = experiment: Antibacterial activity against methicillin-resistant Staphylococcus aureus ATCC 33591 after 48 hrs by agar dilution method; assay type: functional; conditions: ATCC 33591, 48 h

Q: Which IC50 [1] does the source give for CC1(C)C(=O)CC[C@]2(C)[C@H]3C(=O)C=C4[C@@H]5C[C@@](C)(C(=O)O)CC[C@]5(C)CC[C@@]4(C)[C@]3(C)CC[C@@H]12 here?
A: 6.7 µM

Q: And the IC50 [2]?
A: 2.3 µM

Q: What about the IC50 [3] of the same molecule?
A: > 10 µM

Q: Which MIC (Pseudomonas aeruginosa) does the source give for CC1(C)C(=O)CC[C@]2(C)C3=CC=C4[C@@H]5C[C@@](C)(C(=O)O)CC[C@]5(C)CC[C@@]4(C)[C@]3(C)CC[C@@H]12 here?
A: 6.25 µg/mL (≈ 13.8 µM)

Q: What about the IC50 [1] of the same molecule?
A: > 100 µM

Q: What about the IC50 [2] of the same molecule?
A: > 100 µM

Q: What about the IC50 [3] of the same molecule?
A: > 30 µM

Q: What about the MIC (Staphylococcus aureus [4]) of the same molecule?
A: > 50 µg/mL

Q: What about the MIC (Staphylococcus aureus [5]) of the same molecule?
A: > 50 µg/mL

Q: Which results are given for CCO[C@@H]1C=C2[C@@H]3C[C@@](C)(C(=O)O)CC[C@]3(C)CC[C@@]2(C)[C@]2(C)CC[C@H]3C(C)(C)C(=O)CC[C@]3(C)[C@@H]12?
A: MIC (Pseudomonas aeruginosa): 12.5 µg/mL (≈ 25.1 µM); MIC (Staphylococcus aureus [4]): > 12.5 µg/mL; MIC (Staphylococcus aureus [5]): 50 µg/mL (≈ 100 µM)

Q: With C=C(C)[C@@H]1CC[C@]2(C)[C@H](CC=C3[C@@H]4C[C@](C)(C(=O)O)CC[C@]4(C)CC[C@]32C)[C@@]1(C)CCC(=O)O as the molecule, how does the MIC (Pseudomonas aeruginosa) read?
A: 6.25 µg/mL (≈ 13.3 µM)

Q: What about the IC50 [1] of the same molecule?
A: 1.9 µM

Q: And the IC50 [2]?
A: 0.5 µM

Q: And the IC50 [3]?
A: > 1 µM

Q: And the MIC (Staphylococcus aureus [4])?
A: > 3.25 µg/mL

Q: What about the MIC (Staphylococcus aureus [5]) of the same molecule?
A: > 6.25 µg/mL

Q: Which MIC (Pseudomonas aeruginosa) does the source give for CC1(C)C(=O)CC[C@]2(C)[C@H]3[C@H](O)C=C4[C@@H]5C[C@@](C)(C(=O)O)CC[C@]5(C)CC[C@@]4(C)[C@]3(C)CC[C@@H]12 here?
A: > 6.26 µg/mL

Q: What about the IC50 [1] of the same molecule?
A: 3.2 µM

Q: What about the IC50 [2] of the same molecule?
A: 3.6 µM

Q: What about the IC50 [3] of the same molecule?
A: > 1 µM

Q: What about the MIC (Staphylococcus aureus [4]) of the same molecule?
A: > 6.25 µg/mL

Q: What about the MIC (Staphylococcus aureus [5]) of the same molecule?
A: > 6.25 µg/mL

Q: Which MIC (Pseudomonas aeruginosa) does the source give for CO[C@@H]1C=C2[C@@H]3C[C@@](C)(C(=O)O)CC[C@]3(C)CC[C@@]2(C)[C@]2(C)CC[C@H]3C(C)(C)C(=O)CC[C@]3(C)[C@@H]12 here?
A: 10 µg/mL (≈ 20.6 µM)

Q: What about the IC50 [1] of the same molecule?
A: 15 µM

Q: What about the IC50 [2] of the same molecule?
A: 5 µM

Q: And the IC50 [3]?
A: > 30 µM

Q: And the MIC (Staphylococcus aureus [4])?
A: > 10 µg/mL

Q: And the MIC (Staphylococcus aureus [5])?
A: > 10 µg/mL

Q: Which results are given for C=C(C)[C@@H]1CC[C@]2(C)[C@H](CC=C3[C@@H]4C[C@@](C)(C(=O)O)CC[C@]4(C)CC[C@]32C)[C@@]1(C)CCC(=O)O [KOETJAPIC ACID]?
A: MIC (Pseudomonas aeruginosa): 6.25 µg/mL (≈ 13.3 µM); MIC (Staphylococcus aureus [4]): > 6.25 µg/mL; MIC (Staphylococcus aureus [5]): 12.5 µg/mL (≈ 26.6 µM)
